Assay results as given in patent US20050282743A1, “Molecular interactions in cells” (Arbor Vita Corporation, priority 2001, published 2005).
Ends that are not written are not given here. Peptide text beside a SMILES is read from it. * marks the point of attachment. Biotin = O=C1N[C@H]2[C@H](CS[C@H]2CCCCC(=O)*)N1

How the values were obtained:
Test in all cases: G' assay (10 uM PL peptide), results of TABLE 7 and TABLE 12
Assay type in all cases: binding
[1] = biological target: T1, PDZ protein (GST-PDZ fusion) (Homo sapiens, UniProt Q12923)
T1 construct: made in house; host or cells: E. coli (DH5alpha, BL21 or JM109)
Method in brief: (§1)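 Same steps as the G-zero format, apart from a peptide concentration of 10 uM in place of 20 uM in step 2. Amino-terminally biotinylated PL peptides bind GST-PDZ fusions, and retained peptide is quantified by 450 nm absorbance.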

[2] = test system: PDZ protein (GST-PDZ fusion)
Method in brief: as §1

[3] = biological target: T2, PDZ protein (GST-PDZ fusion) (Homo sapiens, UniProt Q02410)
T2 construct: made in house; host or cells: E. coli (DH5alpha, BL21 or JM109)
T2 sequence (Q02410 1-837): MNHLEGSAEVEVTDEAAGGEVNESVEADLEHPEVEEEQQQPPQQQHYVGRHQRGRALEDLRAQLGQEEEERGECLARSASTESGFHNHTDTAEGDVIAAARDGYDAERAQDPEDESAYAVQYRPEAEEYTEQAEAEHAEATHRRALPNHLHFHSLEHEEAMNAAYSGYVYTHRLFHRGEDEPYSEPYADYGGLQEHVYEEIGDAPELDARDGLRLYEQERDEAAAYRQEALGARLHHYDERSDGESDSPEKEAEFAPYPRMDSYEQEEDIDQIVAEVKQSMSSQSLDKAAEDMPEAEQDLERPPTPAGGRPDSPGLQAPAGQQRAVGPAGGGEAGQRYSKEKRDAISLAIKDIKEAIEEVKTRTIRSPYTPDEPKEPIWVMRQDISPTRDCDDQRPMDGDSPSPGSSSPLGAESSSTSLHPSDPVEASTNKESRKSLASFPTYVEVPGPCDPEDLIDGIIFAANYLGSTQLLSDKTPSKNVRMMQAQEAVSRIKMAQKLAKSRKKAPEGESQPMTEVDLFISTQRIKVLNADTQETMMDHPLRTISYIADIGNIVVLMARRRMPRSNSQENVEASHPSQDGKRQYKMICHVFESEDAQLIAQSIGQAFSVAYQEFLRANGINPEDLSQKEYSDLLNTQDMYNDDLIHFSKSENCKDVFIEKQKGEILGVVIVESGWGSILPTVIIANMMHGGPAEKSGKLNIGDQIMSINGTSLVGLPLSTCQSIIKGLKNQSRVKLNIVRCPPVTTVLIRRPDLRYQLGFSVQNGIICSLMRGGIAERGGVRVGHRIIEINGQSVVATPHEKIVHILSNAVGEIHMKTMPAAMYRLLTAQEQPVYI
Method in brief: as §1

[4] = PDZ HEMBA 1003117, PDZ Domain 1

T1 sequence (Q12923 whole entry, the tested form may be a part): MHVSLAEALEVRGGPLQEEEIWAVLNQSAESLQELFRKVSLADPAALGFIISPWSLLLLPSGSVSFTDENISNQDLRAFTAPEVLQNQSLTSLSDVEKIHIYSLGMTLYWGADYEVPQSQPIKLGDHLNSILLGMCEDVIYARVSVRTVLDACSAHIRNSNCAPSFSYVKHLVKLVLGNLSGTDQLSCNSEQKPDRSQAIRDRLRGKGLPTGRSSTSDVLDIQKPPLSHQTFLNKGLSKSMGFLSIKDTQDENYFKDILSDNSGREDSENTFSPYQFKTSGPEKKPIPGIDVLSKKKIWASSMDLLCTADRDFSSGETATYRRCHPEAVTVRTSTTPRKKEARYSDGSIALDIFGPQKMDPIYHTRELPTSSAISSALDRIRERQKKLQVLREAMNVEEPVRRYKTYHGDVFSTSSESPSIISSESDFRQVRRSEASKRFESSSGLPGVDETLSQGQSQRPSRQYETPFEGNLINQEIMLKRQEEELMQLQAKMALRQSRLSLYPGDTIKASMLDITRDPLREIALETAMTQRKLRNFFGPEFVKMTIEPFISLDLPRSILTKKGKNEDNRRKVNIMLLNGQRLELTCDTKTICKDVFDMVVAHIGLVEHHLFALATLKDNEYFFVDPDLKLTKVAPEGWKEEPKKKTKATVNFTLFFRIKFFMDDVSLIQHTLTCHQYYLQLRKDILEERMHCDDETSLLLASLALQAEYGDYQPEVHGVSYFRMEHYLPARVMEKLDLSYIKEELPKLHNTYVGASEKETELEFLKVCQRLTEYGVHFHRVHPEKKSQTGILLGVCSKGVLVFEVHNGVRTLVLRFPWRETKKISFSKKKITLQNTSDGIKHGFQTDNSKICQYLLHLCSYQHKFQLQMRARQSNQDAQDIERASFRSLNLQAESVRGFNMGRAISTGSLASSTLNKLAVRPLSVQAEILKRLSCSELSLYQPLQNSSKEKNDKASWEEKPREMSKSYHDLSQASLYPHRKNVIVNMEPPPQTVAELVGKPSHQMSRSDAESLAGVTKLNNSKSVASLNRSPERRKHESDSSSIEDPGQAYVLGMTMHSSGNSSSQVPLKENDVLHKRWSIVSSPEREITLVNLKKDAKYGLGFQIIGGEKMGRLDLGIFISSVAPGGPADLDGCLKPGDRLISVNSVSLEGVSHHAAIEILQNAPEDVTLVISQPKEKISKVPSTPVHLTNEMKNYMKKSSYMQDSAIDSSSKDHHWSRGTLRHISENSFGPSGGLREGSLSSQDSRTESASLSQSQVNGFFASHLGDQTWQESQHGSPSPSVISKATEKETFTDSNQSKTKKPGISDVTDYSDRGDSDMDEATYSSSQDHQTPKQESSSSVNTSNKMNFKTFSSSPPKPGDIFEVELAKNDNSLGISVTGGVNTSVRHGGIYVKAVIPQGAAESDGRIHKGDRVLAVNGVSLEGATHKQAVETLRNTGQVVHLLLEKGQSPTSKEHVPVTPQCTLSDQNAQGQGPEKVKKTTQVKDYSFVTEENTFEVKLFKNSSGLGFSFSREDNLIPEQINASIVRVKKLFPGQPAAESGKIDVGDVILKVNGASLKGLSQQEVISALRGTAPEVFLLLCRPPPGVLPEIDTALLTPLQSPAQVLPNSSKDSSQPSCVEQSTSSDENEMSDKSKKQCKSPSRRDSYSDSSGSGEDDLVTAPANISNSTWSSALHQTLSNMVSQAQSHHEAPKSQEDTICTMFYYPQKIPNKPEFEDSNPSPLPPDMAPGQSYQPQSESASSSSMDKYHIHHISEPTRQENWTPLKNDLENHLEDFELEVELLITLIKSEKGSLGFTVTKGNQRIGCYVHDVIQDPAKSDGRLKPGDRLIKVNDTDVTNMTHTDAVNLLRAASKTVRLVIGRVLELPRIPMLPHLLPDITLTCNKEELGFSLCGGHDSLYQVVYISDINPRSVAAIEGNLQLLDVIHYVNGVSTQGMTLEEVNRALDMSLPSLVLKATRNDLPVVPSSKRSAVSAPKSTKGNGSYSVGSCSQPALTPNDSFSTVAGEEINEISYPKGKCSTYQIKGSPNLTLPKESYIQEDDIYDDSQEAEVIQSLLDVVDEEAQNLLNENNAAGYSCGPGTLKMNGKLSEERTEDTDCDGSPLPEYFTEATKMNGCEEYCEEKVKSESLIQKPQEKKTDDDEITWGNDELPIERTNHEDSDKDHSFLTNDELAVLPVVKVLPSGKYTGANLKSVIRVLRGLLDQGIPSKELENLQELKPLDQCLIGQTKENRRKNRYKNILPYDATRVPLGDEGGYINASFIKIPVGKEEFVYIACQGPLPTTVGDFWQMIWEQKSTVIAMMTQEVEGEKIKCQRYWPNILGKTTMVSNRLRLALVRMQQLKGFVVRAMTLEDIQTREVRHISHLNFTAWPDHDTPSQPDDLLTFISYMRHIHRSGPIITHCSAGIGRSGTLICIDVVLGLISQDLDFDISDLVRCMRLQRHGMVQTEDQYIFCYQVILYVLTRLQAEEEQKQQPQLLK

CC[C@H](C)[C@H](NC(=O)[C@H](Cc1ccc(O)cc1)NC(=O)[C@H](CC(C)C)NC(=O)[C@H](CCC(N)=O)NC(=O)[C@H](Cc1c[nH]cn1)NC(=O)[C@H](CO)NC(=O)[C@H](C)NC(=O)[C@H](CC(C)C)NC(=O)[C@@H](NC(=O)[C@H](CC(=O)O)NC(=O)[C@H](CCSC)NC(=O)[C@H](Cc1ccccc1)NC(=O)[C@@H]1CCCN1C(=O)[C@H](CCCNC(=N)N)NC(=O)[C@@H](NC(=O)[C@H](CC(C)C)NC(=O)[C@H](CC(N)=O)NC(=O)[C@H](CC(=O)O)NC(=O)[C@@H](NC(=O)[C@H](CO)NC(=O)CCCC[C@@H]1SC[C@@H]2NC(=O)N[C@@H]21)[C@@H](C)O)C(C)C)[C@@H](C)O)C(=O)O [presenilin-2] (Biotin-STDNLVRPFMDTLASHQLYI-OH; C-terminus assumed)
Classification ([1]; PDZ PTPL-1, PDZ Domain 4): 2 (A450 nm 1-2) | Classification [2, 4]: 4 (A450 nm 3-4) | Classification ([3]; PDZ Mint 1, PDZ Domain 1, 2): 3 (A450 nm 2-3)

CC[C@H](C)[C@H](NC(=O)[C@H](Cc1c[nH]cn1)NC(=O)[C@H](C)NC(=O)[C@H](C)NC(=O)[C@H](CO)NC(=O)[C@@H]1CCCN1C(=O)[C@H](CCCNC(=N)N)NC(=O)[C@H](CC(=O)O)NC(=O)[C@H](CCCCN)NC(=O)[C@@H]1CCCN1C(=O)[C@H](CC(=O)O)NC(=O)[C@H](CCC(=O)O)NC(=O)CCCC[C@@H]1SC[C@@H]2NC(=O)N[C@@H]21)C(=O)N[C@H](C(=O)N[C@@H](CCC(=O)O)C(=O)N[C@@H](C)C(=O)N[C@@H](CC(C)C)C(=O)N[C@@H](CCC(=O)O)C(=O)N[C@H](C(=O)N[C@@H](CC(=O)O)C(=O)N[C@H](C(=O)O)C(C)C)[C@@H](C)O)C(C)C [PDZ-binding kinase (PBK)] (Biotin-EDPKDRPSAAHIVEALETDV-OH; C-terminus assumed)
Classification ([1]; PDZ PTPL-1, PDZ Domain 2): 4 (A450 nm 3-4) | Classification ([2]; PDZ BAI-1, PDZ Domain 3): 1 (A450 nm 0-1)

CC(C)C[C@H](NC(=O)CNC(=O)[C@@H](NC(=O)[C@H](CO)NC(=O)[C@H](CC(N)=O)NC(=O)[C@H](Cc1ccccc1)NC(=O)CNC(=O)[C@H](C)NC(=O)[C@H](C)NC(=O)[C@H](Cc1ccccc1)NC(=O)[C@@H](NC(=O)CCCC[C@@H]1SC[C@@H]2NC(=O)N[C@@H]21)[C@@H](C)O)[C@@H](C)O)C(=O)N1CCC[C@H]1C(=O)N[C@@H](Cc1c[nH]cn1)C(=O)N[C@@H](CO)C(=O)N[C@H](C(=O)N[C@H](C(=O)N[C@@H](CCCNC(=N)N)C(=O)N[C@H](C(=O)O)C(C)C)[C@@H](C)O)[C@@H](C)O [Neuroligin] (Biotin-TFAAGFNSTGLPHSTTRV-OH; C-terminus assumed)
Classification ([1]; PDZ PTPL-1, PDZ Domain 2): 1 (A450 nm 0-1) | Classification ([1]; PDZ PTPL-1, PDZ Domain 4): 1 (A450 nm 0-1) | Classification ([2]; PDZ SHANK, PDZ Domain 1): 2 (A450 nm 1-2) | Classification ([3]; PDZ Mint 1, PDZ Domain 1, 2): 1 (A450 nm 0-1)

A2AC_HUMAN (Modified) (Biotin-DFRPSFKHILFRRARRGFRQ; not fully specified)
Classification ([1]; PDZ PTPL-1, PDZ Domain 5): 3 (A450 nm 2-3) | Classification ([3]; PDZ Mint 1, PDZ Domain 2): 3 (A450 nm 2-3)

ELLQFCRTPNPALKNGQYWV (Biotin-ELLQFCRTPNPALKNGQYWV)
Classification ([1]; PDZ PTPL-1, PDZ Domain 4): 5 (A450 nm of 4 more than 2× repeated) | Classification ([2]; PDZ BAI-1, PDZ Domain 2): 2 (A450 nm 1-2) | Classification ([2]; PDZ BAI-1, PDZ Domain 6): 4 (A450 nm 3-4) | Classification [2, 4]: 5 (A450 nm of 4 more than 2× repeated) | Classification ([3]; PDZ Mint 1, PDZ Domain 1): 2 (A450 nm 1-2) | Classification ([3]; PDZ Mint 1, PDZ Domain 1, 2): 5 (A450 nm of 4 more than 2× repeated) | Classification ([3]; PDZ Mint 1, PDZ Domain 2): 5 (A450 nm of 4 more than 2× repeated)

CC(C)C[C@H](NC(=O)[C@H](Cc1c[nH]c2ccccc12)NC(=O)[C@H](Cc1c[nH]cn1)NC(=O)[C@H](CCCNC(=N)N)NC(=O)[C@H](CC(C)C)NC(=O)[C@@H](NC(=O)[C@H](Cc1ccccc1)NC(=O)[C@H](CCC(N)=O)NC(=O)[C@H](CCCNC(=N)N)NC(=O)[C@@H](NC(=O)[C@H](CCC(=O)O)NC(=O)CNC(=O)[C@H](CCCNC(=N)N)NC(=O)[C@H](CC(=O)O)NC(=O)[C@@H](NC(=O)[C@H](CC(C)C)NC(=O)[C@H](CCC(=O)O)NC(=O)[C@H](CCCNC(=N)N)NC(=O)CCCC[C@@H]1SC[C@@H]2NC(=O)N[C@@H]21)C(C)C)C(C)C)[C@@H](C)O)C(=O)N[C@@H](CCCCN)C(=O)N[C@H](C(=O)O)C(C)C [Dopamine transporter (Na+-dependent)] (Biotin-RELVDRGEVRQFTLRHWLKV-OH; C-terminus assumed)
Classification ([1]; PDZ PTPL-1, PDZ Domain 4): 3 (A450 nm 2-3) | Classification [2, 4]: 5 (A450 nm of 4 more than 2× repeated)

CC[C@H](C)[C@H](NC(=O)CNC(=O)[C@H](CO)NC(=O)[C@H](Cc1ccccc1)NC(=O)[C@@H](NC(=O)[C@H](CS)NC(=O)CNC(=O)CNC(=O)[C@H](C)NC(=O)[C@@H]1CCCN1C(=O)[C@@H](NC(=O)[C@@H]1CCCN1C(=O)CCCC[C@@H]1SC[C@@H]2NC(=O)N[C@@H]21)[C@@H](C)CC)[C@@H](C)O)C(=O)N[C@@H](Cc1ccccc1)C(=O)N1CCC[C@H]1C(=O)N[C@H](C(=O)N[C@@H](CC(C)C)C(=O)N[C@H](C(=O)N[C@@H](CO)C(=O)N1CCC[C@H]1C(=O)N[C@@H](CC(C)C)C(=O)O)[C@@H](C)O)[C@@H](C)O [KIA 1481] (Biotin-PIPAGGCTFSGIFPTLTSPL-OH; C-terminus assumed)
Classification ([2]; PDZ BAI-1, PDZ Domain 2): 2 (A450 nm 1-2) | Classification ([2]; PDZ BAI-1, PDZ Domain 4): 1 (A450 nm 0-1) | Classification ([2]; PDZ BAI-1, PDZ Domain 5): 3 (A450 nm 2-3) | Classification ([2]; PDZ BAI-1, PDZ Domain 6): 2 (A450 nm 1-2) | Classification ([2]; PDZ FLJ00011 (also printed FLJ 00011), PDZ Domain 1): 2 (A450 nm 1-2) | Classification ([2]; PDZ Novel PDZ, PDZ Domain 1): 1 (A450 nm 0-1) | Classification ([2]; PDZ Novel PDZ, PDZ Domain 2): 1 (A450 nm 0-1) | Classification ([2]; PDZ SHANK, PDZ Domain 1): 5 (A450 nm of 4 more than 2× repeated) | Classification ([3]; PDZ Mint 1, PDZ Domain 1, 2): 3 (A450 nm 2-3) | Classification ([3]; PDZ Mint 1, PDZ Domain 2): 3 (A450 nm 2-3)

SLKPGTVLPPPPYRHRNTVV (Biotin-SLKPGTVLPPPPYRHRNTVV) [ErbB-4 receptor]
Classification ([1]; PDZ PTPL-1, PDZ Domain 2): 2 (A450 nm 1-2) | Classification ([2]; PDZ BAI-1, PDZ Domain 3): 1 (A450 nm 0-1)

GPVPGEPAKPKTSAHHATFV (Biotin-GPVPGEPAKPKTSAHHATFV)
Classification ([1]; PDZ PTPL-1, PDZ Domain 4): 1 (A450 nm 0-1) | Classification [2, 4]: 1 (A450 nm 0-1)

LNETTETQRTLLNGDLQTSI (Biotin-LNETTETQRTLLNGDLQTSI) [SSTR2 (somatostatin recepor 2)]
Classification ([2]; PDZ SHANK, PDZ Domain 1): 1 (A450 nm 0-1) | Classification ([3]; PDZ Mint 1, PDZ Domain 1, 2): 1 (A450 nm 0-1) | Classification ([3]; PDZ Mint 1, PDZ Domain 2): 1 (A450 nm 0-1)

CC[C@H](C)[C@H](NC(=O)[C@H](CCC(N)=O)NC(=O)CCCC[C@@H]1SC[C@@H]2NC(=O)N[C@@H]21)C(=O)N[C@@H](CO)C(=O)N1CCC[C@H]1C(=O)NCC(=O)NCC(=O)N[C@@H](CC(C)C)C(=O)N[C@@H](CCC(=O)O)C(=O)N1CCC[C@H]1C(=O)N1CCC[C@H]1C(=O)N[C@@H](CO)C(=O)N[C@@H](CCC(=O)O)C(=O)N[C@@H](CCCCN)C(=O)N[C@@H](Cc1c[nH]cn1)C(=O)N[C@@H](Cc1ccccc1)C(=O)N[C@@H](CCCNC(=N)N)C(=O)N[C@@H](CCC(=O)O)C(=O)N[C@H](C(=O)N[C@@H](CCC(=O)O)C(=O)N[C@H](C(=O)O)C(C)C)[C@@H](C)O [Tax]
Classification ([1]; PDZ PTPL-1, PDZ Domain 2): 2 (A450 nm 1-2) | Classification ([2]; PDZ BAI-1, PDZ Domain 2): 5 (A450 nm of 4 more than 2× repeated) | Classification ([2]; PDZ BAI-1, PDZ Domain 3): 1 (A450 nm 0-1) | Classification ([2]; PDZ BAI-1, PDZ Domain 4): 2 (A450 nm 1-2) | Classification ([2]; PDZ BAI-1, PDZ Domain 5): 5 (A450 nm of 4 more than 2× repeated) | Classification ([2]; PDZ BAI-1, PDZ Domain 6): 1 (A450 nm 0-1) | Classification ([2]; PDZ Connector Enhancer, PDZ Domain 1): 1 (A450 nm 0-1) | Classification ([2]; PDZ FLJ 00011, PDZ Domain 1): 1 (A450 nm 0-1) | Classification ([2]; PDZ FLJ 11215, PDZ Domain 1): 1 (A450 nm 0-1)

CC[C@H](C)[C@H](NC(=O)[C@H](CCC(=O)O)NC(=O)[C@H](CC(N)=O)NC(=O)[C@H](CCCNC(=N)N)NC(=O)[C@H](Cc1ccccc1)NC(=O)[C@H](CC(N)=O)NC(=O)[C@H](CO)NC(=O)[C@H](CC(N)=O)NC(=O)[C@H](CCC(=O)O)NC(=O)[C@H](CO)NC(=O)[C@H](CC(=O)O)NC(=O)[C@H](CO)NC(=O)[C@@H](NC(=O)[C@@H](NC(=O)[C@H](CC(=O)O)NC(=O)[C@H](CCCCN)NC(=O)CCCC[C@@H]1SC[C@@H]2NC(=O)N[C@@H]21)[C@@H](C)CC)[C@@H](C)O)C(=O)N[C@@H](CCC(N)=O)C(=O)N[C@@H](CO)C(=O)N[C@@H](CC(C)C)C(=O)N[C@H](C(=O)O)C(C)C [CD95] (Biotin-KDITSDSENSNFRNEIQSLV-OH; C-terminus assumed)
Classification ([1]; PDZ PTPL-1, PDZ Domain 2): 3 (A450 nm 2-3) | Classification ([1]; PDZ PTPL-1, PDZ Domain 4): 1 (A450 nm 0-1) | Classification ([2]; PDZ BAI-1, PDZ Domain 5): 3 (A450 nm 2-3)
